From patent US20090155186A1, “Compositions and methods for treating inflammatory conditions” (SIGNUM BIOSCENCES, INC., priority 2005, published 2009)

Legend:
[1] = target: membrane-associated polyisoprenoid methyl transferase (Homo sapiens, UniProt O60725); conditions: background statement; cited from earlier work
TPA-induced MPO activity [2] = experiment: TPA-induced neutrophil infiltration, MPO assay of mouse ears; type: in vivo
Experimental: MPO enzyme activity of the ears was assayed using the technique detailed by Griffiths and coworkers (1988). To conduct the assay, each ear was homogenized in 1.0 ml of cetyltrimethylammonium bromide buffer for 5 sec using a Pro 200 tissue blender (Pro Scientific, Inc., Oxford, Conn.) at setting 5. These samples then were centrifuged for 5 minutes at 15,000 rpm in a 5415 Eppendorf microcentrifuge. Triplicate 20 microliter aliquots of supernatant were added to 200 microliters of reaction mixture (1.25 ml IM Potassium Phosphate, 4.175 mg o-dianisidine dihydrochloride and 5 μl of 1% peroxide in a final volume of 25 ml). Absorbance at 450 nm then was measured at room temperature at three 60 second intervals using Bio-Kinetics Reader EL 312E (Bio-Tek Instruments). Activity of the homogenate, which was determined by a Bradford assay (BioRad Protein Assay, BioRad Laboratories, Inc. Hercules, Calif.), was expressed as units MPO per mg tissue +/−standard error.
Two micrograms (2 μg) of TPA in 20 μl of acetone was applied onto both ears of each mouse to induce neutrophil infiltration. After 15 minutes, varying concentrations of AFC in acetone were applied to the right ear of each mouse. After 24 hours, the mice were sacrificed. The ears were removed and the efficacy of AFC on neutrophil infiltration was assessed by an MPO assay and histological analysis.
The effectiveness of AFC treatment at various times before and after TPA application was assessed using MPO as a measure of neutrophil infiltration. […]

human skin = experiment: SDS patch irritation on human skin with pre-applied AFC; type: in vivo; conditions: AFC 140 mM aqueous formulation pre-applied
Experimental: An irritant was applied to the middle of the upper back of a human subject using a 0.2 ml 20% SDS solution and a Hill-Top Chamber patch with Webril pad. […] Patches 1a and 2a were removed after 2 hours, while patches 1b and 2b were removed after 2 hours and 30 minutes. High levels of irritation were visible in patch sites 2a and 2b.

[3] = tested on: TPA-induced neutrophil infiltration; experiment: TPA-induced neutrophil infiltration, neutrophil counting assay (H&E histology); type: in vivo, mouse
Experimental: Neutrophil-infiltration Assay: Swiss Webster male mice (n=6) were treated with 1 μg/20 μl of TPA as described above in order to assess whether or not TPA induced neutrophil infiltration Acetone was used as a control. TPA was administered as described above. The mice were returned to their cages for 24 hrs to allow neutrophil infiltration, then sacrificed by cervical dislocation. The ears were removed immediately for punch biopsy, and punches were fixed for subsequent histological analysis and MPO enzymatic assay.
Neutrophil Counting Assay: Ear punches buffered in 10% formalin in PBS at ambient temperature for a minimum of 24 hrs. were sectioned and stained with Hematoxilin & Eosin (“H&E”). The number of neutrophils, identified by their multilobular nuclei, in 6 randomly 100× magnified fields distributed along the length of the ear were counted manually The results are expressed as the average number per field for each ear.
Two micrograms (2 μg) of TPA in 20 μl of acetone was applied onto both ears of each mouse to induce neutrophil infiltration. […] After 24 hours, the mice were sacrificed.

TPA-induced erythema = TPA-induced erythema in mouse ear (photograph); type: in vivo; conditions: 1 μg/20 μl TPA; 1 mg/20 μl AFC after 1 hour; photo 23 hours later
Experimental: For this example, both ears of a mouse were treated with a 1 μg/20 μl dose of TPA in acetone. […] The photo was taken 23 hours later using a Nikon D70 digital camera.

mouse ear [4] = experiment: AFC in acetone alone, mouse ear edema (irritancy test); type: in vivo; conditions: topical, dose up to about 32 mg/20 μl, 5.5 hours
Experimental: Each contralateral ear was treated with only acetone in the same manner. The mice then were returned to their cages. After 5.5 hours, mice were sacrificed and 6 mm punches were taken from each ear and weighed. Edema response was expressed as the percent increase in the treated ear's weight over the untreated (acetone, vehicle only) ear.

TPA-induced edema = experiment: TPA-induced edema, murine ear acute contact irritation model; type: in vivo, mouse; conditions: 2 μg TPA in 20 μl acetone; AFC in acetone 15 min later; 5.5 hours
Excerpt: (See Carlson, R. P., et al., Modulation of mouse ear edema by cyclooxygenase and lipoxygenase inhibitors and other pharmacologic agents. Agents Actions, 1985. 17(2): 197-204; Kuehl, F. A., Jr., et al., Role of prostaglandin endoperoxide PGG2 in inflammatory processes. Nature, 1977. 265(5590): 170-3; Trancik R J, L. N., Evaluation of topical nonsteroidal anti-inflammatory agents, in Models in Dermatology, L. Maibach, Editor. 1985, Karger. pp, 35-42; and Tramposch, K. M., Skin Inflammation, in In Vivo Models of Inflammation, M. L. Morgan D W, Editor. 1999, Birkhauser Verlag. pp. 179-204.)
The standard agents for initiating inflammation were the phorbol ester, tetradecanoylphorbol acetate, (TPA) and arachidonic acid (AA). TPA produces a greater and more prolonged neutrophil infiltration response than AA (See Rao, T. S., et al., Comparative evaluation of arachidonic acid (AA)-and tetradecanoylphorbol acetate (TPA)-induced dermal inflammation. Inflammation, 1993.17(6): 72341.) TPA-induced inflammation is the preferred agent and was used for this example.
In order to assess the effects of the inventive composition on TPA-induced edema, 2 μg of TPA in 20 μl acetone was applied with the aid of a micropipetter onto both ears of each of 6 mice. The mice were returned to their cages. […]

chronic irritation = experiment: Chronic irritation in mice by multiple TPA applications; type: in vivo, mouse; conditions: AFC in acetone, contemplated result
Experimental: The effectiveness of the inventive compositions against established chronic irritation can be assayed using a modification of the technique of Stanley P L et al., Mouse skin inflammation induced by multiple topical application 12-O-tetradeconoyphorbol-13-acetate. Skin Pharmacol. 1991, 4(4):262-71. Both ears of each mouse are treated with TPA in acetone, as above, in a series of 5 applications on the mornings of days 0, 2, 4, 7, and 9. […] Punches of the ears then are taken the afternoon of the tenth day and prepared, as above, for the edema assay and the infiltration of neutrophils. Total granulocyte infiltration then is assayed by measuring MPO activity. Macrophage infiltration is determined immunocytologically using the MOMA-2 antibody. Hydrocortisone, which is known to reduce inflammatory edema granulation infiltration and microphage infiltration, can be used as a positive control.

[5] = tested on: delayed-type hypersensitivity; experiment: DNFB delayed-type hypersensitivity mouse ear model; type: in vivo; conditions: AFC 0.5 hour before or 15 min after challenge, contemplated result
Excerpt: The mouse ear model, described above, can be modified to assay the effect of anti-inflammatory agents in an immune based inflammation model (See Tramposch, K. M., Skin Inflammation, in In Vivo Models of Inflammation, M. L. Morgan D W, Editor. 1999, Birkhauser Verlag. pp. 179-20 and Chapman, J. P., Z. Ruben, and G. M. Butchko, Histology of and quantitative assays for oxazolone-induced allergic contact dermatitis in mice. Am J Dermatopathol, 1986. 8(2): 130-8). In this model, a sensitizing dose of dinitrofluorobenzene (DNFB) 1-3% in acetone can be applied topically according to a modification of the method by Back et al. to the shaved bellies of mice to elicit an immune response. (See Back, O. and T. Egelrud, Topical glucocorticoids and suppression of contact sensitivity. A mouse bioassay of anti-inflammatory effects. Br J Dermatol, 1985. 112(5): 539-45 and Bailey, S. C., et al., A novel contact hypersensitivity model for rank-ordering formulated corticosteroids. Inflamm Res, 1995. 44 Suppl 2: S162-3.) Mice then are challenged on day 5 with 40 μl of 0.5-1% DNFB to each ear. […] The ears are assayed for edema or neutrophil infiltration 5 hours later. Dexamethasone is used as a positive control. Five days later, the ears are challenged topically with a dose of DNFB insufficient to produce contact irritation. Simultaneously, cell infiltration studies are initiated. […]

[6] = tested on: neutrophil, macrophage, and platelet responses; conditions: in vitro, background statement; cited from earlier work
TPA-induced MPO activity [7] = conditions: mouse, in vivo
Experimental: These included dexamethasone, a steroid, and indomethasone, a non-steroid anti-inflammatory drug, which targets cycloxygenases. The action of AFC in this model was, therefore, compared to that of dexamethasone and indomethasone. Each of these agents were tested using the same protocols used to test AFC.

mouse ear [8] = experiment: Induction of mouse ear edema by TPA (dose response for irritant); type: in vivo; conditions: of the acetone-treated ear; TPA 0.25 to 1.75 μg/20 μl in acetone, topical, 5.5 hours
Experimental: A dose response range for TPA, a compound known to induce edema, was determined. TPA produces an increase in edema (ear swelling) that reaches a maximum at 6 hours.
Increasing concentrations of TPA dissolved in acetone were applied with the aid of a micropipetter onto the right ear of each of the five 6-8 week old, male Swiss Webster mice used in this analysis. Ten microliters (10 μl) were spread evenly onto the inner and outer surfaces using the pipette tip. The mice then were returned to their cages. The contralateral ear was treated only with acetone. After 5.5 hours, the mice were sacrificed and 6 mm punches were taken from each ear and weighed. Edema response was expressed as a percent increase in the treated ear's weight over the untreated ear. The dose response curve, as well as an ED50 value, was determined using the Lichtfield method (Lichtfield J T W. F., A simplified method of evaluating dose-effect experiments, Journal of Pharmacology and Experimental Therapeutics, 1948, 96: 99-113).

[9] = 2 μg TPA in 20 μl acetone, AFC 15 min later, 24 hours

membrane-associated polyisoprenoid methyl transferase, sequence (O60725 whole entry): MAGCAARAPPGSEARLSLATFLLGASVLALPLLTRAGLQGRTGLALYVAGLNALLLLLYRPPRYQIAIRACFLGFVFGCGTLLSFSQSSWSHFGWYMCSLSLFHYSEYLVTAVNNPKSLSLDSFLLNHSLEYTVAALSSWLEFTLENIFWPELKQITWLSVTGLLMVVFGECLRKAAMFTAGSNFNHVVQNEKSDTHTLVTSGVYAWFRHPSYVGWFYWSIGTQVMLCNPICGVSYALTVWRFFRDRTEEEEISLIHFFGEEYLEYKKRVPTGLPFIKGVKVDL

CC(=O)N[C@@H](CSCC=C(C)CCC=C(C)CCC=C(C)C)C(=O)O (stereo in doubt) [AFC, N-acetyl-5-trans, trans-farnesyl-L-cysteine]
inhibition of polyisoprenoid methyl transferase [1]: inhibit membrane-associated polyisoprenoid methyl transferase | effect on TPA-induced MPO activity at different application times (TPA-induced MPO activity [2]; 1 μg/20 μl TPA, 1 mg/20 μl AFC at various times before and after TPA): efficacy of AFC treatment prior to, simultaneous with, or after exposure of skin to TPA | ED50 for inhibition of TPA-induced MPO activity (TPA-induced MPO activity [2]; [9]): 0.065 mg/20 μl | inhibition of TPA-induced increases in MPO activity (TPA-induced MPO activity [2]; [9]): > 80% | skin irritation at patch site 1b (human skin; 20% SDS patch removed after 2 hours and 30 minutes): mild response | skin irritation at patch site 1a (human skin; 20% SDS patch removed after 2 hours): normal skin | reduction in dermal neutrophils (counts) ([3]; 1.0 mg/20 μl AFC, TPA acute contact irritation, statistically significant, paired t-test): 80% | neutrophils in histology of AFC treated ear ([3]; TPA pretreated ears, 24 hours, FIG. 5): substantial reduction of neutrophils | TPA-induced erythema (TPA-induced erythema): An effect of the AFC inventive composition on TPA-induced erythema was observed | edema response (ear punch biopsy weight) to AFC alone (mouse ear [4]): no effect | ED50 for TPA-induced edema inhibition (TPA-induced edema): approximately 0.44 mg/20 μl | maximum reduction in TPA-induced edema (TPA-induced edema): 80% | chronic edema and neutrophil number (chronic irritation): reduces chronic edema and neutrophil number | edema and neutrophil infiltration in DNFB challenge [5]: effective in reducing both edema and neutrophil infiltration | neutrophil, macrophage and platelet responses [6]: block some neutrophil, macrophage, and platelet responses in vitro

C[C@@H]1C[C@H]2[C@@H]3CCC4=CC(=O)C=C[C@]4(C)[C@@]3(F)[C@@H](O)C[C@]2(C)[C@@]1(O)C(=O)CO [dexamethasone]
MPO activity in the contralateral vehicle-treated ear (systemic effect) (TPA-induced MPO activity [7]): increasing inhibition of MPO activity

COc1ccc2c(c1)c(CC(=O)O)c(C)n2C(=O)c1ccc(Cl)cc1 [indomethasone]
MPO activity in the contralateral vehicle-treated ear (systemic effect) (TPA-induced MPO activity [7]): increasing inhibition of MPO activity

tetradecanoylphorbol acetate [TPA]
maximum increase in ear weight (edema) (mouse ear [8]): approximately 150%
